# Reference: US12459902B2, “Crystalline forms of 4-(7-hydroxy-2-isopropyl-4-oxo-4H-quinazolin-3-yl)-benzonitrile and formulations thereof” (priority 2020, dated 2025)
# Key:
# [1] = Water uptake on exposure to moisture (hygroscopicity); assay type: physicochemical; conditions: for maximum water uptake: up to 95% RH at 25° C.
# [2] = assay type: physicochemical
# Solubility in water = conditions: water at 25° C.
smiles,measurement,setting,value
"CC(C)c1nc2cc(O)ccc2c(=O)n1-c1ccc(C#N)cc1 [Hydrate HB, 4-(7-Hydroxy-2-isopropyl-4-oxo-4H-quinazolin-3-yl)-benzonitrile]",additional water uptake above 70% RH,"[1]; above 70% RH, at 95% RH, 25° C.",about 2.5%
same,water uptake up to 70% RH,[1]; up to 70% RH at 25° C.,slight uptake of water
"CC(C)c1nc2cc(O)ccc2c(=O)n1-c1ccc(C#N)cc1 [crystal form B, 4-(7-Hydroxy-2-isopropyl-4-oxo-4H-quinazolin-3-yl)-benzonitrile]",conversion of equimolar suspension of crystal form B and crystal form M,"[2]; 20° C., 30° C. and 35° C., isopropylacetate, dichloromethane, ethanol or water, 7 days",converted after 7 days almost completely into crystal form M
"CC(C)c1nc2cc(O)ccc2c(=O)n1-c1ccc(C#N)cc1 [crystal form E, 4-(7-Hydroxy-2-isopropyl-4-oxo-4H-quinazolin-3-yl)-benzonitrile]",conversion of equimolar suspension of crystal form M and crystal form E,"[2]; 30° C., 35° C. and 45° C., isopropylacetate, dichloromethane, ethanol or water, 7 days",converted after 7 days completely into Modification M
"CC(C)c1nc2cc(O)ccc2c(=O)n1-c1ccc(C#N)cc1 [crystal form K′, 4-(7-Hydroxy-2-isopropyl-4-oxo-4H-quinazolin-3-yl)-benzonitrile]",hygroscopicity,[1]; 25° C.,non-hygroscopic
same,maximum water uptake,[1],less than 0.2%
"CC(C)c1nc2cc(O)ccc2c(=O)n1-c1ccc(C#N)cc1 [crystal form M, 4-(7-Hydroxy-2-isopropyl-4-oxo-4H-quinazolin-3-yl)-benzonitrile]",hygroscopicity,[1]; 25° C.,non hygroscopic
same,maximum water uptake,[1],less than 0.1%
same,thermodynamic stability relative to crystal form B,[2]; temperature range from 20° C. to 35° C.,thermodynamically more stable than crystal form B
same,thermodynamic stability relative to crystal form Q,[2]; temperature range from 22° C. to 35° C.,thermodynamically more stable than crystal form Q
same,thermodynamic stability relative to crystal form E,[2]; temperature range from 30° C. to 45° C.,thermodynamically more stable than crystal form E
same,solubility in water,Solubility in water,40 µg/mL
"CC(C)c1nc2cc(O)ccc2c(=O)n1-c1ccc(C#N)cc1 [crystal form Q, 4-(7-Hydroxy-2-isopropyl-4-oxo-4H-quinazolin-3-yl)-benzonitrile]",hygroscopicity,[1]; 25° C.,non hygroscopic
same,maximum water uptake,[1],less than 0.1%
same,conversion of equimolar suspension of crystal form M and crystal form Q,"[2]; 22° C., 30° C. and 35° C., isopropylacetate, dichloromethane, ethanol or water, 7 days",converted after 7 days completely into crystal form M
